Reference: a melting point compilation (Tetko et al.; mined from patent text by program, amines drawn as free bases though some values may be those of a salt)

Point of comparison: `CCCCCCn1c(-c2ccc(Cl)c(S(=O)(=O)N(C)C)c2)csc1=Nc1ccccc1`, melting point 86 °C. Against it:
- COCCOc1ccc(CCCC(=O)O)c(Oc2ncc(C(F)(F)F)cc2Cl)c1 — higher, 119 to 120 °C
- CCOC(=O)c1ncc2[nH]c3cccc(COC(C)=O)c3c2c1COC — higher, 129 to 133 °C
- CC(C)(C)OC(=O)Nc1ccc(I)cc1[N+](=O)[O-] — higher, 92 to 94 °C
- CC(C)NS(=O)(=O)Cc1ccc(N)cc1 — higher, 105 to 107 °C
- COC(=O)c1ccc(CNC(C)=O)cc1S(=O)(=O)NC(=O)Nc1nc(OC)cc(OC)n1 — higher, 149 to 150 °C
- O=c1c2cc(F)ccc2nc(NCc2ccccc2F)n1-c1ccccc1Cl — higher, 163 to 165 °C
- COc1cc(C(=O)Cc2ccccc2)cc(Cl)c1Cl — higher, 126 to 129 °C
- CCCCc1nc2cc(C)c(C)cc2n1Cc1ccc(C(=O)O)cc1 — higher, 220 °C
- Cc1cccc2[nH]c(C(=O)OC(C)C)c(Sc3ccc(Cl)cc3)c12 — higher, 190 to 192 °C
- CN(Cc1ccccc1)Cc1c(-c2ccc(N)cc2)sc2c1c(=O)n(-c1ccccc1)c(=O)n2Cc1c(F)cccc1F — higher, 205 to 207 °C
- COc1ccc(OCC(O)CO)cc1 (stereo not given) — lower, 73 to 74 °C
- Cc1cc(CC(=O)OC(C)(C)C)ccc1NC(=O)Nc1ccccc1F — higher, 89 to 91 °C
- COc1ccc(/C=C/c2cc(/C=C/c3ccc4cc[nH]c4c3)n[nH]2)cc1OCc1ccccn1 — higher, 110 to 117 °C
- COc1cc2c(cc1OC)C(=O)C(=NO)C2 — higher, 240 °C
- COc1ccc(CN2C(=O)C3CC(c4ccc(N)cc4)(C3)C2=O)cc1 — higher, 147 to 148 °C
- COc1ccccc1NC(=O)NC1N=C(c2ccccc2)c2ccccc2N(C)C1=O (stereo not given) — higher, 258 to 260 °C
- N#Cc1cc([N+](=O)[O-])ccc1OC12CC3CC(CC(C3)C1)C2 — higher, 187 to 189 °C
- CC(Oc1c(Cl)cccc1Cl)C(N)=O (single isomer, unassigned; (-)) — higher, 192 to 193 °C
- CCCC(=O)Nc1n[nH]c2cc(-c3ccc(OCc4ccccc4)cc3)c(-c3ccc(OCc4ccccc4)cc3)cc12 — higher, 140 °C
- CC(=O)C=Cc1cccc(N(C)C)c1 — lower, 47 to 49 °C
- Cc1ccccc1C(CCC(=O)O)Oc1cc(OCc2ccsc2)cc(F)c1C#N (racemic) — higher, 150 to 151 °C
- CCOC(=O)CC(=O)CC(O)C=Cc1c(C)c(OCc2ccccc2)c(C)c2c1OC(C)(C)CC2 (stereo not given) — lower, 83 to 83.5 °C
- O=C(/C=C/c1ccccc1)Nc1ccccc1C(=O)O — higher, 188 to 189 °C
- CCCCCCCCc1ccc(C=Nc2ccc(C#N)cc2)cc1 — lower, 32.5 to 32.8 °C
- O=C(Nc1ccc(OCc2ccoc2)c2ccccc12)c1cc(F)cc(N2CCCCC2)c1 — higher, 152 to 153 °C
- CCOC(=O)Cc1ccc(-c2nc(COc3ccc(COc4nn(-c5ccccc5)cc4C=O)cc3OC)c(C)o2)cc1 — higher, 157 to 158 °C
- CCCCCCCCOc1ccc(-c2ccc(C(C)O)cc2)cc1 (single isomer, unassigned; (-)) — higher, 124 °C
- Fc1ccc(-c2ncnc(C(F)F)c2Cl)c(F)c1 — lower, 69 to 71 °C
- Cc1ccc(NC(=O)c2ccc3c(c2)C(=O)N(c2c(C)cccc2C)C3=O)cc1C — higher, 223 to 225 °C
- N#Cc1ccc2c(c1)nc(N)n2CCC(=O)O — higher, > 320 °C
- COc1ccc(N2CCCn3c2nc2c(Cl)ccc(C(OC(F)F)C(F)(F)F)c23)c(C)c1 (stereo not given) — higher, 178 to 182 °C
- CCCc1nc2c(N)nc3cc(OCc4ccccc4Cl)ccc3c2n1CC(C)C — higher, 216 to 218 °C
- COC(=O)c1ccc(-c2nc(-c3ccc4c(c3)C(C)(C)CCC4(C)C)cs2)cc1 — higher, 138 to 140 °C
- O=C(Nc1ccc(S(=O)(=O)c2ccccn2)cc1)C(O)(C(F)(F)F)C(F)(F)F — higher, 199 to 200 °C
- O=C(NCc1ccn(-c2cc3nc(C(=O)O)c(=O)[nH]c3cc2Cl)c1)Nc1cccc2ccccc12 — higher, 196 to 198 °C
- NC(=O)c1csc(Cl)c1 — higher, 138 to 139 °C
- CC1(C2CCC3C4CCC5CC(O)CCC5(C)C4C(OC(=O)CCl)CC32C)OCCO1 (stereo not given) — higher, 194 to 202 °C
- CCCCCCC1C(=O)NC(C(=O)SCCC(=O)OC)(C(O)C2C=CCCC2)C1(C)O (stereo not given) — lower, 64 °C
- NCc1cccc(N2C(=O)N(c3ccccc3Br)Cc3cnc(Nc4ccccc4)nc32)c1 — higher, 121 °C
- O=C(O)c1ccc(-c2cccc3ccccc23)cc1 — higher, 221 to 224 °C
- Cc1nn(CCNS(C)(=O)=O)c(-c2ccc(F)cc2)c1-c1ccc2c(c1)NC(=O)CO2 — higher, 220 to 221 °C
- O=C(OCCn1cnc2c(Cl)nc3ccccc3c21)c1ccccc1 — higher, 186 °C
- COc1c(C)c(Cc2ccc(Cl)cc2)c(OC)c2ccccc12 — higher, 101 to 102 °C
- COCc1cccc(-c2nn(C(C)c3oc4ccccc4c(=O)c3-c3cccc(F)c3)c3ncnc(N)c23)c1 (stereo not given) — higher, 167 to 170 °C
- Cn1nnc(-c2ccc3c(c2)c(C2=CCN(CCc4nnnn4C)CC2)cn3-c2ccc(F)cc2)n1 — higher, 171 to 173 °C
- c1cc2c(cc1CCSSCCc1ccc3c(c1)OCO3)OCO2 — lower, 76 to 78 °C
- CCCCOc1ccc(S(=O)(=O)C2(C(=O)O)CCN(C)CC2)cc1 — higher, 118 °C
- COc1ccc(/C=C(/C(=O)O)c2cc(OC)c(OC)c(OC)c2)cc1 — higher, 187 to 189 °C
- CC(C)(C)c1cccc(S(=O)(=O)n2c(CCCC(=O)O)cc3cc(C(F)(F)F)ccc32)c1 — higher, 135 to 141 °C
- O=C(c1ccccc1)c1ccc2nc3c(C(=O)O)cccc3nc2c1 — higher, 236 to 237 °C
- O=[N+]([O-])c1cccc2cncc(Br)c12 — higher, 172 to 174 °C
- CCc1cc([N+](=O)[O-])cc([N+](=O)[O-])c1Cl — lower, 41 to 44 °C
- COc1ccc(C2CCN(C(=O)C(N)=O)CC2)cc1OC1CCCC1 — lower, 66 to 66.5 °C
- CCOC(=O)c1ccccc1N(CC(=O)N(C)c1ccccc1)C(=O)CNC(=O)Nc1cccc(C(C)O)c1 (stereo not given) — higher, 195 °C
- CCOc1ccnc(Cl)n1 — lower, 30 to 31 °C
- Cn1nc(-c2ccc(O)cc2)ccc1=O — higher, 242 to 245 °C
- O=C(c1ccccc1)c1cc2c(cc1O)C(CO)(C(=O)O)CC2 (stereo not given) — higher, 104 to 110 °C
- CCc1c(-c2ccncc2)[nH]c(-c2ccncc2)c1C(C)=O — higher, 241 to 243 °C
- CN1C(=O)N(CC(CS(=O)(=O)c2ccc(-c3ccc(Cl)cc3)cc2)C(=O)O)C(=O)C1(C)C (stereo not given) — higher, 148 to 150 °C
- O=c1[nH]nnc2sccc12 — higher, 175 to 176 °C
- CCOC(=O)c1ccc(NCCc2cccs2)cc1 — higher, 93 to 96 °C
- NC(=NCC(F)(F)F)Nc1ccn(CCCCO)n1 — higher, 105 to 106 °C
- CCC(=O)c1cc(Cl)c(Cl)c2c1OCC(CO)O2 (stereo not given) — higher, 121 to 123 °C
- O=Cc1cc(Br)ccc1Oc1ccc(Cl)c(Cl)c1 — higher, 129 to 132 °C
- Cc1cc2c(cc1C=O)OCO2 — not separable, 84 to 86 °C
- CCCCN1C2=NCCN2C(c2ccccc2)c2cc(Cl)ccc21 (stereo not given) — higher, 97 to 97.5 °C
- CCN1CCCC(N2C(=O)c3ccc([N+](=O)[O-])cc3C2=O)C1 (stereo not given) — higher, > 300 °C
- CC/C(=C(\c1ccc(/C=C/C(=O)O)cc1)c1ccc(OC(=O)CN(C)C)cc1)c1ccccc1 — higher, 206 to 208 °C
- CCOC(=O)c1cccn1Cc1ccc(Cl)cc1[N+](=O)[O-] — higher, 104 to 106 °C
- N#Cc1cc(O)c(O)c(O)c1 — higher, 219 °C
- CC(C)(C#N)c1ccc(C(=O)Nc2cn3cc(Cl)ccc3n2)cc1 — higher, 248 to 250 °C
- O=C1CC(c2cccc(-n3ccnc3)c2)=Nc2cc(N3CCC(OCCO)CC3)c(-c3ccc(F)cc3)cc2N1 — higher, 225 to 227 °C
- CC(C)n1c(=O)nc(-c2ccccc2)c2cc3c(cc21)OCO3 — higher, 189 to 190 °C
- C=CCNC(=O)c1cc(Cl)c2[nH]ncc2n1 — higher, 121 to 125 °C
- Clc1ccc(Cn2cc(CCn3ccnc3)c3ccccc32)cc1 — lower, 78 to 80 °C
- O=C(NO)c1ccc(CNC(=O)c2[nH]c(-c3ccccc3)cc2-c2ccc(C(F)(F)F)cc2)cc1 — higher, 137 to 138 °C
- CCOC(=O)c1c(C(F)(F)F)nc(C(F)F)c(C(=O)OC)c1C1CC1 — lower, 49 to 52 °C
- Cc1oc(-c2ccc(F)cc2)cc1C(C)O (stereo not given) — lower, 50 to 52 °C
- CC(Oc1ccc(NC(=O)NC(=O)c2ccccc2Cl)cc1)c1ccccc1 (stereo not given) — higher, 166 to 167 °C
- O=C1CCN(c2cc(Cl)ncn2)CC1 — higher, 100 to 103 °C
- CC(O)(C#CI)c1ccc(OC(F)(F)F)cc1 (stereo not given) — lower, 75 to 76 °C
- N#CCNC(=O)C1(NC(=O)c2ccc(N3CCNCC3)cc2)CCCCC1 — higher, 206 to 210 °C
- CN(Cc1ccc(OC(=O)Cc2ccccc2Nc2c(Cl)cccc2Cl)cc1)CC(C)(C)SN=O — higher, 126 to 130 °C
- O=C1C(Br)=C(c2ccccc2)C(=O)N1Nc1ccccc1 — higher, 146 to 147 °C
- CCCCOc1ccc(C(C)NC(=O)NO)cc1 (stereo not given) — higher, 125 to 127 °C
- CSc1ccc(C(=O)Cc2ccccc2)cc1F — lower, 71 to 72 °C
- O=C(Oc1nc(Cl)c(Cl)cc1Cl)C(Cl)(Cl)Cl — lower, 58 to 60 °C
- COc1cc(C=CC(=O)Nc2c(-c3ccccc3Cl)c3cc(C(C)C)ccc3n(C)c2=O)cc(OC)c1OC(C)=O — higher, 187 to 189 °C
- COC(=O)C(=Cc1cc(OC)cc(OC)c1)c1ccc(Oc2ccc(C=O)cc2)cc1 — higher, 108 to 110 °C
- O=C(CS)Nc1ccc(C(=O)NCCO)cc1 — higher, 184 to 186 °C
- Cc1ccc(CC2CCN(C(=O)C(=O)Nc3ccc4[nH]c(=O)oc4c3)CC2)cc1 — higher, 133 to 135 °C
- C=CC(=O)NC1Cc2ccc(-c3ccc(=O)[nH]n3)cc2C1 (stereo not given) — higher, 235 to 237 °C
- CC(=O)NC[C@H]1CN(c2ccc(N3CCN(C(=O)CCCC(=O)c4ccc(NC(=O)CN)cc4)CC3)c(F)c2)C(=O)O1 — higher, 178 to 181 °C
- CNc1cc(C(F)(F)F)on1 — lower, 39 to 41 °C
- CNS(=O)(=O)CCc1ccc2[nH]ccc2c1 — higher, 122 to 124 °C
- CC(C)(C#N)ON1C(C)(C)CNC(=O)CC1(C)C — higher, 130 to 134 °C
- O=C(O)Cc1nn(-c2nc3ccccc3s2)c(=O)c2ccccc12 — higher, 205 °C
- CC(n1cnc2cc(I)ccc2c1=O)C(O)(Cn1cncn1)c1ccc(F)cc1F (stereo not given) — higher, 155 to 156 °C
- CNC(=O)c1cc(C(=O)OCCO)cc(C(=O)NC)n1 — higher, 214 to 215 °C
